Data set [1] concerns the target T1, USP7, Active human recombinant protein (Homo sapiens, UniProt Q93009).
T1 construct: purchased CP Lot; 20200225001
As to the kind of experiment: USP7 assay (Ubiquitin-Rhodamine 110 enzymatic assay). The data set is classed as biochemical. As to conditions: read-out: IC50. In short, it runs like this:
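Human recombinant USP7 (0.05 nM final) preincubated with compound, 10-point 3-fold series, 15 min at RT. Reaction started with 190 nM ubiquitin-rhodamine 110. Fluorescence (ex 485/em 535 nm) read kinetically 20 min. Slopes normalized to enzyme+substrate and substrate-only controls; IC50 from curve fit.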

Data set [2] can be described thus: plasma stability (Plasma Assay Protocol). As to conditions: 37° C., t1/2 extrapolated if >50% remaining at 60 min, ∞ if near 100% remaining. It is filed as in vitro ADME. The protocol: ND refers to not disclosed.
• 1. Preheated 0.05 M sodium phosphate and 0.07 M NaCl buffer, pH 7.4. Dissolved 14.505 g/L Na2HPO4·12H2O, 1.483 g/L NaH2PO4·2H2O and 4.095 g/L NaCl in deionized water. The basic solution was then titrated with the phosphoric acid to pH 7.40. Stored in fridge up to 7 days. Checked pH on the day of experiment and adjust if outside specification of 7.4+/−0.1. • 2. Plasma preparation: • Thawed frozen plasma by placing at 37° C. quickly. Centrifuged plasma at 3,000 rpm for 8 minutes to remove clots, pipetted and pooled the supernatant as the plasma to be used in the experiment. Checked and recorded the pH of the plasma. Only used plasma within the range of pH 7.4 to pH 8. If higher than pH 8, discarded the plasma. By using a 5% CO2 incubator and PBS buffer, a pH of 7.4 was reached after the 4 hour equilibrium dialysis time. Put the plasma on ice until used. • 3. Tested compounds and reference compounds spiking solution: • 0.5 mM test compounds spiking solution A: Added 10 μL of 10 mM test compounds stock solution to 190 μL DMSO. • 0.02 mM spiking solution B: Added 40 μL of spiking solution A to 960 μL of […] Sodium phosphate buffer with 0.5% BSA.
Pre-warmed the plasma and spiking solution B at 37° C. for 5 min. Added 10 μL of pre-warmed spiking solution B into the wells designated for all the time points (5, 15, 30, 45, 60 min).
For 0-min, added 400 μL of acetonitrile (ACN) containing the internal standard (IS) to the wells of 0-min plate and then added 90 μL of plasma. Added 90 μL of pre-warmed plasma into the wells designated for the time points (0, 5, 15, 30, 45, 60 min), and started timing. At 5, 15, 30, 45, 60 min, added 400 μL of ACN containing IS to the wells of corresponding plates, respectively, to stop the reaction. After quenching, shook the plates at the vibrator (IKA, MTS 2/4) for 10 min (600 rpm/min) and then centrifuged at 5594 g for 15 min (Thermo Multifuge×3R). Transferred 50 μL of the supernatant from each well into a 96-well sample plate containing 50 μL of ultra pure water (Millipore ZMQS50F01) for LC/MS analysis.

Data set [3] is described as follows: mouse liver microsomal stability (Microsome Assay Protocol). As to conditions: pH 7.4; mouse liver microsomes, NADPH, 37° C.; read-out: MLM t1/2, min. The data set is classed as in vitro ADME. The essentials:
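Compound at 1.5 μM was mixed with 0.75 mg/mL mouse liver microsomes in 0.1 M potassium phosphate, 1.0 mM EDTA, pH 7.4, then started with NADPH from a 6 mM stock after 5 min preincubation at 37 °C. Samples taken at 0, 5, 15, 30 and 45 min were quenched with acetonitrile containing internal standard and analysed by LC/MS.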

Molecules are shown by their SMILES. pIC50: −log10 of the molar value.

T1 sequence (Q93009 whole entry): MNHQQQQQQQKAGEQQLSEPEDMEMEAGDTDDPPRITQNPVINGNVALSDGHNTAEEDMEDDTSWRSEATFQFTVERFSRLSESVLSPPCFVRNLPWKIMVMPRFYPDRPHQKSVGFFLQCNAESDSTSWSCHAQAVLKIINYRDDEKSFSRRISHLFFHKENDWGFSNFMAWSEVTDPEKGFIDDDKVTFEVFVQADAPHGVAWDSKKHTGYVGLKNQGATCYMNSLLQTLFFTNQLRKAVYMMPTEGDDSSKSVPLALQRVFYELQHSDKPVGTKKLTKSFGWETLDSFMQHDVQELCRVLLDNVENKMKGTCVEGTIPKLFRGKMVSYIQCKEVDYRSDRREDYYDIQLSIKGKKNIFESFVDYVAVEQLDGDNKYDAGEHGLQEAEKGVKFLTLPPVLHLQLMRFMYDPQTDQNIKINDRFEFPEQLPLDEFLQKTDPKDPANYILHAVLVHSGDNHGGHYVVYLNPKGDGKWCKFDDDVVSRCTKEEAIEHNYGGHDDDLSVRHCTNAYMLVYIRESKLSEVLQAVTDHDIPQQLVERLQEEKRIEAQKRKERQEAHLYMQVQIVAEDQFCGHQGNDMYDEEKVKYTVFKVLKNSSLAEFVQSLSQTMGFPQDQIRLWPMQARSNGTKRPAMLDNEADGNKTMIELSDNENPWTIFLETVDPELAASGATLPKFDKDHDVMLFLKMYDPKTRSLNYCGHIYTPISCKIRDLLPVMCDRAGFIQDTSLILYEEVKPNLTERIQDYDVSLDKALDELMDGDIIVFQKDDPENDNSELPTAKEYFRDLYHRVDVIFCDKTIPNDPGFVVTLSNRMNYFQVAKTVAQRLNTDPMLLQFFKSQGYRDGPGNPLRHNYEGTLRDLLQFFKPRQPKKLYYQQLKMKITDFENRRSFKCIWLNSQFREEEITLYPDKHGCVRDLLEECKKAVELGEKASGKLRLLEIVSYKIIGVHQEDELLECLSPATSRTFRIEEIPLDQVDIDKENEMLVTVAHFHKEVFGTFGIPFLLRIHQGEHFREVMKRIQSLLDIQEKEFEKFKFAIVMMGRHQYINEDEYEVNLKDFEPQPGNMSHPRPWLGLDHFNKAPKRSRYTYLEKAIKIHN

Regarding `CN1CCN(CCC(=O)Nc2ccc3c(=O)n(CC4(O)CCN(C(=O)[C@@H](CCCNC(=O)c5ccc6c(Cl)c7c(nc6c5)CCCC7)Cc5ccccc5)CC4)cnc3c2)CC1`, the pIC50 in data set [1] is more than 7.70. Moreover, the half-life at 2 µM in data set [2] was more than 8.33 h. Also, in data set [3], the half-life at 1 µM is 0.0333 h.
Turning to `CN1CCN(CCC(=O)Nc2ccc3c(=O)n(CC4(O)CCN(C(=O)C(CCCNC(=O)c5ccc6c(Cl)ccnc6c5)Cc5ccccc5)CC4)cnc3c2)CC1` (centres unmarked), in data set [1], the pIC50 was 7.00 to 7.70. In data set [2], the half-life at 2 µM was 5.46 h. For the same compound, the half-life at 1 µM in data set [3] amounted to 0.183 h.
As to `CN(C)CCCOc1ccc2c(=O)n(CC3(O)CCN(C(=O)[C@H](CCCNC(=O)c4ccc5c(Cl)cc(C6CC6)nc5c4)Cc4ccccc4)CC3)cnc2c1`, the pIC50 in data set [1] was more than 7.70. Moreover, the “Plasma t1/2, min” value in data set [2] is “∞*”. The half-life at 1 µM in data set [3] came to 0.451 h.
With `CN(C)CCCOc1ccc2c(=O)n(CC3(O)CCN(C(=O)[C@H](CCCNC(=O)c4ccc5c(Cl)c(C(N)=O)cnc5c4)Cc4ccccc4)CC3)cnc2c1`, in data set [1], the negative logarithm of the IC50 (pIC50) was more than 7.70. The half-life at 2 µM in data set [2] was 1.86 h. Further, the half-life at 1 µM in data set [3] was found to be 0.777 h.
On the same counts, the results for `CN(C)CCCOc1ccc2c(=O)n(CC3(O)CCN(C(=O)[C@H](CCCNC(=O)c4ccc5c(Cl)c(C(=O)NC6CC6)cnc5c4)Cc4ccccc4)CC3)cnc2c1` are more than 7.70, 0.481 h and 0.736 h.
The like results for `CN(C)CCCOc1ccc2c(=O)n(CC3(O)CCN(C(=O)C(CCCNC(=O)c4ccc5c(Cl)c(C(N)=O)cnc5c4)Cn4ccc(F)n4)CC3)cnc2c1` (centres unmarked) were, in that order, more than 7.70, 1.43 h and 2.18 h.
On the same counts, the results for `CN(C)CCCOc1ccc2c(=O)n(CC3(O)CCN(C(=O)[C@@H](CCCNC(=O)c4ccc5c(Cl)c(C(N)=O)cnc5c4)Cn4ccc(F)n4)CC3)cnc2c1` are more than 7.70, 1.43 h and 3.72 h.
For the compound `CN(C)CCCOc1ccc2c(=O)n(CC3(O)CCN(C(=O)[C@H](Cc4ccccc4)N(C)CCNC(=O)c4ccc5c(Cl)c(C(N)=O)cnc5c4)CC3)cnc2c1`, the pIC50 in data set [1] is less than 6.00. In data set [2], the half-life at 2 µM was 2.48 h. Moreover, the half-life at 1 µM in data set [3] came out at 1.68 h.
On the same counts, the results for `CN(C)CCCOc1ccc2c(=O)n(CC3(O)CCN(C(=O)C(CCCNC(=O)c4ccc5c(Cl)cc(C6CC6)nc5c4)Cn4ccc(F)n4)CC3)cnc2c1` (centres unmarked) are more than 7.70, 3.14 h and 0.283 h.
Take `CN(C)CCCOc1ccc2c(=O)n(CC3(O)CCN(C(=O)C(CCCNC(=O)c4ccc5c(Cl)c6c(nc5c4)CCCC6)Cn4ccc(F)n4)CC3)cnc2c1` (centres unmarked): the pIC50 in data set [1] is more than 7.70. Moreover, the half-life at 2 µM in data set [2] is 6.6 h. Moreover, in data set [3], the half-life at 1 µM worked out at 0.041 h.
On to `CN(C)CCCOc1ccc2c(=O)n(CC3(O)CCN(C(=O)[C@@H](CCCNC(=O)c4ccc5c(Cl)c6c(nc5c4)CCCC6)Cn4ccc(F)n4)CC3)cnc2c1`, for which, in data set [2], the half-life at 2 µM was 2.12 h. In data set [3], the half-life at 1 µM was 0.116 h.
For `O=C(NCCCC(Cn1ccc(F)n1)C(=O)N1CCC(O)(Cn2cnc3ccccc3c2=O)CC1)c1ccc2c(Cl)c3c(nc2c1)CCCC3` (centres unmarked), the pIC50 in data set [1] was more than 7.70. The half-life at 2 µM in data set [2] is 6.56 h. Moreover, the half-life at 1 µM in data set [3] came out at 0.00933 h.
On the same counts, the results for `CN1CCN(CCC(=O)Nc2ccc3c(=O)n(CC4(O)CCN(C(=O)[C@@H](CCCNC(=O)c5ccc6c(Cl)cc(-c7ccc(F)cc7)nc6c5)Cc5ccccc5)CC4)cnc3c2)CC1` [Compound 5, (S)—N-(4-benzyl-5-(4-hydroxy-4-((7-(3-(4-methylpiperazin-1-yl)propanamido)-4-oxoquinazolin-3(4H)-yl)methyl)piperidin-1-yl)-5-oxopentyl)-4-chloro-2-(4-fluorophenyl)quinoline-7-carboxamide] are 6.00 to 7.00, 5.33 h and 0.3 h.
With `O=C(NCCC[C@@H](Cc1ccccc1)C(=O)N1CCC(O)(Cn2cnc(NCCN3CCCC3)cc2=O)CC1)c1ccc2c(Cl)ccnc2c1` [Compound 13, N-(4-benzyl-5-(4-hydroxy-4-((6-oxo-4-(2-(pyrrolidin-1-yl)ethylamino)pyrimidin-1(6H)-yl)methyl)piperidin-1-yl)-5-oxopentyl)-4-chloroquinoline-7-carboxamide], in data set [1], the pIC50 is 7.00 to 7.70. The half-life at 2 µM in data set [2] was 1.53 h.
Take `CN1CCN(CCC(=O)Nc2ccc3c(=O)n(CC4(O)CCN(C(=O)[C@@H](CCCNC(=O)c5ccc6c(Cl)cc(-c7cnn(CC(F)(F)F)c7)nc6c5)Cc5ccccc5)CC4)cnc3c2)CC1` [Compound 20]: the pIC50 in data set [1] was 7.00 to 7.70. The half-life at 2 µM in data set [2] is 3.77 h. Besides, the half-life at 1 µM in data set [3] is 0.43 h.
The like results for `CN1CCN(CCC(=O)Nc2ccc3c(=O)n(CC4(O)CCN(C(=O)C(CCCNC(=O)c5ccc6c(Cl)cc(C7CC7)nc6c5)Cc5ccccc5)CC4)cnc3c2)CC1` (centres unmarked) [Compound 22] were, in that order, 7.00 to 7.70, 2.25 h and 0.305 h.
The like results for `C=CS(=O)(=O)Nc1ccccc1-c1ccc(C(=O)N2CCC(O)(Cn3cnc4cc(NC(=O)CCN5CCN(C)CC5)ccc4c3=O)CC2)cc1` [Compound 23, N-(3-((4-hydroxy-1-(2′-(vinylsulfonamido)-[1,1′-biphenyl]-4-carbonyl)piperidin-4-yl)methyl)-4-oxo-3,4-dihydroquinazolin-7-yl)-3-(4-methylpiperazin-1-yl)propanamide] were, in that order, 7.00 to 7.70, 0.175 h and 0.822 h.
On to `C=CC(=O)Nc1ccccc1-c1ccc(C(=O)N2CCC(O)(Cn3cnc4cc(NC(=O)CCN5CCN(C)CC5)ccc4c3=O)CC2)cc1` [Compound 24, N-(4′-(4-hydroxy-4-((7-(3-(4-methylpiperazin-1-yl)propanamido)-4-oxoquinazolin-3(4H)-yl)methyl)piperidine-1-carbonyl)biphenyl-2-yl)acrylamide], for which, in data set [1], the pIC50 is less than 6.00. Also, the half-life at 2 µM in data set [2] is 0.383 h.
`CN1CCN(CCOc2ccc3c(=O)n(CC4(O)CCN(C(=O)C(CCCNC(=O)c5ccc6c(Cl)ccnc6c5)Cc5ccccc5)CC4)cnc3c2)CC1` (centres unmarked) [Compound 30, N-(4-benzyl-5-(4-hydroxy-4-((7-(2-(4-methylpiperazin-1-yl)ethoxy)-4-oxoquinazolin-3(4H)-yl)methyl)piperidin-1-yl)-5-oxopentyl)-4-chloroquinoline-7-carboxamide]: the pIC50 in data set [1] is 7.00 to 7.70. In addition, the half-life at 2 µM in data set [2] was 112 h. Further, the half-life at 1 µM in data set [3] stood at 0.262 h.
On the same counts, the results for `CN(C)CCC(=O)Nc1ccc2c(=O)n(CC3(O)CCN(C(=O)C(CCCNC(=O)N4CCc5c(Cl)ccnc5C4)Cc4ccccc4)CC3)cnc2c1` (centres unmarked) [Compound 43] are 7.00 to 7.70, 3.09 h and 0.138 h.
Regarding `CN1CCN(CCC(=O)Nc2ccc3c(=O)n(CC4(O)CCN(C(=O)[C@@H](CCCNC(=O)c5ccc6c(Cl)ccnc6c5)Cc5ccccc5)CC4)cnc3c2)CC1` [Compound 59, (S)—N-(4-benzyl-5-(4-hydroxy-4-((7-(3-(4-methylpiperazin-1-yl)propanamido)-4-oxoquinazolin-3(4H)-yl)methyl)piperidin-1-yl)-5-oxopentyl)-4-chloroquinoline-7-carboxamide], the negative-log IC50 (pIC50) in data set [1] was 7.00 to 7.70. Moreover, the half-life at 2 µM in data set [2] was 1.32 h.

Values taken from patent US20240376076A1, “INHIBITORS TARGETING UBIQUITIN SPECIFIC PROTEASE 7 (USP7)” (Dana-Farber Cancer Institute, Inc., priority 2021, published 2024).
